Test results taken from patent US20230322756A1, “FUSED IMIDAZOLE DERIVATIVE, PREPARATION METHOD THEREFOR, AND MEDICAL USE THEREOF” (JIANGSU HENGRUI MEDICINE CO., LTD., priority 2020, published 2023).

Target: GLP-1 receptor (Homo sapiens (Human), UniProt P43220)
Assay: Agonist activity against GLP-1 receptor, CRE-luciferase reporter (ONE-Glo) in CHO-K1/CRE-luc/GLP-1 receptor cells
Assay type: cell-based
Details: 6 h incubation
Excerpt: This experiment was intended to test the agonist activity of the compound molecules against the GLP-1 receptor and evaluate the in vitro activity of the molecules according to EC50. The experiment adopted a ONE-Glo™ Luciferase Assay System (Promega, E6110). Under the action of compound molecules, GLP-1R downstream signaling pathways were activated to cause elevated cAMP level. The combination of cAMP and CRE could start the transcription expression of CRE downstream luciferase genes, the luciferase could emit fluorescence when reacting with substrates thereof, and the activity of the compound for agonizing GLP-1 receptors was reflected by measuring fluorescence signals through a ONE-Glo™ reagent.
Stably-expressed CHO-K1/CRE-luc/GLP-1 receptor cell strains (self-construction of GLP-1 receptor plasmid; CRE-luc plasmid Promega E8471) were constructed. CHO-K1/CRE-luc/GLP-1 receptor cells were digested, and resuspended after centrifugation. […] The plate was incubated in an incubator for 16 h (37° C., 5% CO2).
The compound was dissolved in DMSO to prepare a stock solution with an initial concentration of 20 mM. The starting concentration of the small molecule compound was 0.2 mM, and the compound underwent 3-fold serial dilution for a total of 10 concentration points, with DMSO at the 11th point. To another 96-well plate was added 95 μL of cell culture medium (DME/F-12+10% FBS), 5 μL of test samples with different concentrations were added to each well, followed by uniform mixing, and then 10 μL of test samples with different concentrations were added to each well, with two duplicate wells set for each sample. The plate was incubated in an incubator for 6 h (37° C., 5% CO2). The 96-well cell culture plate was taken out, and 100 μL of ONE-Glo™ reagent was added to each well, followed by incubation at room temperature for 10 min. The plate was placed in a microplate reader (EnVision 2105, PE) for determination of chemiluminescence.
Data were processed and analyzed using Microsoft Excel and Graphpad Prism 5.

GLP-1 receptor, sequence (P43220 24-463): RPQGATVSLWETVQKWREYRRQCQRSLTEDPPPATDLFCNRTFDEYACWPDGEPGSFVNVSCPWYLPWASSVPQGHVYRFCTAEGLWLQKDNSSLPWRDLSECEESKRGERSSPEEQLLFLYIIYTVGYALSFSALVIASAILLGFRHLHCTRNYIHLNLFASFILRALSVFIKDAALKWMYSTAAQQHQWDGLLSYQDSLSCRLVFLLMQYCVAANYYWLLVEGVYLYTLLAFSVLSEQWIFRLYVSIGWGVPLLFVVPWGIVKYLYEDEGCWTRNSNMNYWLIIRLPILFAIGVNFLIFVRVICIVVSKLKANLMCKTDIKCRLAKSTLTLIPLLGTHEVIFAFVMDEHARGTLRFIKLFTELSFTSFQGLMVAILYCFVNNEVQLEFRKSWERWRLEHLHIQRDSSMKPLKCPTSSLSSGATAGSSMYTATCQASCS

EC50: 0.12 nM
Emax: 107%
Compound: O=C(O)c1ccc2nc(CN3CCC(c4cccc5c4O[C@@H](c4ccc(Cl)cc4F)CO5)CC3)n(C[C@@H]3CCO3)c2n1 [Example 5, 2-((4-((S)-3-(4-Chloro-2-fluorophenyl)-2,3-dihydrobenzo[b][1,4]dioxan-5-yl)piperidin-1-yl)methyl)-3-((S)-oxetan-2-ylmethyl)-3H-imidazo[4,5-b]pyridine-5-carboxylic acid]
